Literature values as cited in patent publication US5585490A, “Certain cycloalkyl and azacycloalkyl pyrrolopyrimidines; a new class of GABA brain receptor ligands” (priority 1993, dated 1996).

System: benzodiazepine binding site
Conditions: Tallman et al., 1978, Nature, 274: 383-85

Compound	Enhancement of benzodiazepine binding by GABA agonists is blocked
CN1CCc2cc3c(cc2C1C1OC(=O)c2c1ccc1c2OCO1)OCO3 (single isomer, unassigned; (+)) [(+) bicuculline]	blocked
CN1CCc2cc3c(cc2C1C1OC(=O)c2c1ccc1c2OCO1)OCO3 (single isomer, unassigned; (-)) [(-) bicuculline]	much less active
